From ChEMBL document CHEMBL5209562, “Label-free detection of transporter activity via GPCR signalling in living cells: A case for SLC29A1, the equilibrative nucleoside transporter 1” (Sci Rep, 2019)

Target: T1, Equilibrative nucleoside transporter 1 (Homo sapiens, UniProt Q99808)
T1 sequence (Q99808 whole entry): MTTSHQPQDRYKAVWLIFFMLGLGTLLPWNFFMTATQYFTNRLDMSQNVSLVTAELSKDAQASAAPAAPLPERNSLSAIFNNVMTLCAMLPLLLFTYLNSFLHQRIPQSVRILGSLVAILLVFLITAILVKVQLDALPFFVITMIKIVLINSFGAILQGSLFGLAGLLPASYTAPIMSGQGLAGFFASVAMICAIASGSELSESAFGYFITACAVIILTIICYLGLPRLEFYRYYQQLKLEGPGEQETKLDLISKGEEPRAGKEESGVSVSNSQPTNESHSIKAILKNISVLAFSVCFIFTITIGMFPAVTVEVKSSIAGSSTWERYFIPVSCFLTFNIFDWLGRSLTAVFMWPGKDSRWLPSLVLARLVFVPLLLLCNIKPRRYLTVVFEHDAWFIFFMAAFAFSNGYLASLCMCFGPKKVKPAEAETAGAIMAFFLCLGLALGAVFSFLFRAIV
Test: Inhibition of the equilibrative nucleoside transporter (ENT1, SLC29A1) as assessed by GPCR-mediated changes in cell morphology using the impedance-based transporter activity through receptor activation (TRACT) assay (PubChem AID: 1745861)
Format: functional, U2OS

An IC50 of 5.3 nM was found for `NC(=O)C1CN(CCCCC(c2ccc(F)cc2)c2ccc(F)cc2)CCN1CC(=O)Nc1c(Cl)cc(N)cc1Cl` (stereo unspecified) [DRAFLAZINE] in this work.
